Results reported in PubChem BioAssay AID1259408 (Genetic Toxicology Data Bank (GENE-TOX), 2018).
Active and inactive are the calls of the source. The rule behind the calls is not given here.

Test system: GENE-TOX genotoxicity assays, various organisms and cells
Test: GENE-TOX mutagenicity studies
Conditions: for call: Assay Type: In vivo carcinogenicity studies
[1] = Species/Cell Type: Arabidopsis species, Assay Type: Gene mutation, Assay Code: ARM+, Evaluation Type: Evaluation A (Pre-1980)
[2] = Species/Cell Type: Drosophila melanogaster, Assay Type: Sex-linked recessive lethal gene mutation, Assay Code: SRL+, Evaluation Type: Evaluation A (Pre-1980)
[3] = Species/Cell Type: Neurospora crassa, Assay Type: Forward gene mutation, Assay Code: NEF+, Evaluation Type: Evaluation A (Pre-1980)
[4] = Species/Cell Type: Nonhuman, Assay Type: Sister-chromatid exchange (SCE) in vitro, Assay Code: SC2+, Evaluation Type: Evaluation B (Post-1980)
[5] = Species/Cell Type: Allium cepa, Assay Type: Chromosome aberrations, Assay Code: ALCT, Evaluation Type: Evaluation A (Pre-1980)
[6] = Species/Cell Type: Salmonella typhimurium (one or more of the five standard strains: TA98, TA100, TA1535, TA1537, and TA1538), Assay Type: Histidine reverse gene mutation, Ames assay, Assay Code: SALT, Evaluation Type: Evaluation A (Pre-1980)
[7] = Species/Cell Type: Human lymphocytes, Assay Type: Sister-chromatid exchange (SCE) in vitro, Assay Code: SCLT, Evaluation Type: Evaluation B (Post-1980)
[8] = Species/Cell Type: Drosophila melanogaster, Assay Type: Sex-linked recessive lethal gene mutation, Assay Code: SRLT, Evaluation Type: Evaluation A (Pre-1980)
[9] = Species/Cell Type: Nonhuman, Assay Type: Sister-chromatid exchange (SCE) in vivo, Assay Code: SC3T, Evaluation Type: Evaluation B (Post-1980)
[10] = Species/Cell Type: Bacillus subtilis (H17 vs M45), Assay Type: Rec-assay, spot test, DNA effects (bacterial DNA repair), Assay Code: REW-, Evaluation Type: Evaluation A (Pre-1980)
[11] = Species/Cell Type: Human lymphocytes, Assay Type: Sister-chromatid exchange (SCE) in vitro, Assay Code: SCL+D, Dose Response: With dose response, Evaluation Type: Evaluation B (Post-1980)
[12] = Species/Cell Type: Human, Assay Type: Sister-chromatid exchange (SCE) in vitro, Assay Code: SC1+D, Dose Response: With dose response, Evaluation Type: Evaluation B (Post-1980)

CS(=O)(=O)OCCCCOS(C)(=O)=O
mutagenic call [1]: active; positive | mutagenic call (Species/Cell Type: Chinese hamster ovary (CHO) cells, Assay Type: Forward gene mutation at the HPRT locus, Assay Code: CHO+, Evaluation Type: Evaluation B (Post-1980)): active; positive | mutagenic call [2]: active; positive | mutagenic call (Species/Cell Type: Escherichia coli polA (W3119 vs P3478), Assay Type: Rec-assay, DNA effects (bacterial DNA repair), Assay Code: RE1+, Evaluation Type: Evaluation A (Pre-1980)): active; positive | mutagenic call (Species/Cell Type: Hordeum vulgare (barley), Assay Type: Chromosome aberrations, Assay Code: HOC+D, Dose Response: With dose response, Evaluation Type: Evaluation A (Pre-1980)): active; positive | mutagenic call (Species/Cell Type: Human lymphocytes or leukocytes, Assay Type: Chromosome aberrations in vitro, Assay Code: CY7+D, Dose Response: With dose response, Evaluation Type: Evaluation A (Pre-1980)): active; positive | mutagenic call (Species/Cell Type: Human lymphocytes, Assay Type: Sister-chromatid exchange (SCE) in vitro, Assay Code: SCL+D, Dose Response: With dose response, Evaluation Type: Evaluation A (Pre-1980)): active; positive | mutagenic call (Species/Cell Type: Human lymphocytes, Assay Type: Sister-chromatid exchange (SCE) in vivo, Assay Code: SCY+, Evaluation Type: Evaluation B (Post-1980)): active; positive | mutagenic call (Species/Cell Type: Human, Assay Type: Sister-chromatid exchange (SCE) in vitro, Assay Code: SC1+D, Dose Response: With dose response, Evaluation Type: Evaluation A (Pre-1980)): active; positive | mutagenic call (Species/Cell Type: Mammalian germ cells, Sex: Male, Assay Type: Chromosome aberrations in vivo, Assay Code: CY9T, Evaluation Type: Evaluation A (Pre-1980)): no conclusion | mutagenic call (Species/Cell Type: Mammalian polychromatic erythrocytes, Assay Type: Micronucleus test, chromosome aberrations, Assay Code: MNT+, Evaluation Type: Evaluation B (Post-1980)): active; positive | mutagenic call (Species/Cell Type: Mammalian polychromatic erythrocytes, Assay Type: Micronucleus test, chromosome aberrations, Assay Code: MNTT, Evaluation Type: Evaluation A (Pre-1980)): no conclusion | mutagenic call (Species/Cell Type: Mouse lymphoma (L5178Y) cells, Assay Type: Forward gene mutation at the thymidine kinase (TK) locus, chromosome aberrations, Assay Code: L51+, Evaluation Type: Evaluation A (Pre-1980)): active; positive | mutagenic call (Species/Cell Type: Mouse, Sex: Male, Assay Type: Sperm morphology, Assay Code: SPI+, Evaluation Type: Evaluation A (Pre-1980)): active; positive | mutagenic call [3]: active; positive | mutagenic call (Species/Cell Type: Nonhuman bone marrow, Assay Type: Chromosome aberrations, in vivo, Assay Code: CY#+D, Dose Response: With dose response, Evaluation Type: Evaluation A (Pre-1980)): active; positive | call (Species/Cell Type: Nonhuman, Assay Code: CCGT, Evaluation Type: Evaluation A (Pre-1980)): no conclusion | mutagenic call [4]: active; positive | mutagenic call (Species/Cell Type: Rabbit, Sex: Male, Assay Type: Sperm morphology, Assay Code: SPR+, Evaluation Type: Evaluation A (Pre-1980)): active; positive | mutagenic call (Species/Cell Type: Rodents, Sex: Male, Assay Type: Dominant lethal test, Assay Code: DLT+, Evaluation Type: Evaluation A (Pre-1980)): active; positive

O.O.O.[Co]
mutagenic call (Species/Cell Type: Bacillus subtilis (H17 vs M45), Assay Type: Rec-assay, spot test, DNA effects (bacterial DNA repair), Assay Code: REW+, Evaluation Type: Evaluation A (Pre-1980)): active; positive

CS(=O)(=O)OCC(O)C(O)COS(C)(=O)=O (stereo not drawn)
mutagenic call [5]: no conclusion | mutagenic call [1]: active; positive | mutagenic call (Species/Cell Type: Vicia faba, Assay Type: Chromosome aberrations, Assay Code: VIC+D, Dose Response: With dose response, Evaluation Type: Evaluation A (Pre-1980)): active; positive

Nc1ccc(N=Nc2cccc(N=Nc3ccc(N)cc3N)c2)c(N)c1
mutagenic call (Species/Cell Type: Bacillus subtilis (H17 vs M45), Assay Type: Rec-assay, spot test, DNA effects (bacterial DNA repair), Assay Code: REWT, Evaluation Type: Evaluation A (Pre-1980)): no conclusion

CCCCCCN(N=O)/C(N)=N/[N+](=O)[O-]
mutagenic call [6]: no conclusion

CCCCCC(=O)C(CCCC)c1oc(=O)c(CCCC)c(O)c1CCCC (stereo not drawn)
mutagenic call [7]: no conclusion | mutagenic call (Species/Cell Type: Human, Assay Type: Sister-chromatid exchange (SCE) in vitro, Assay Code: SC1T, Evaluation Type: Evaluation B (Post-1980)): no conclusion

COc1cc([C@@H]2c3cc4c(cc3[C@H](O)[C@H]3COC(=O)[C@H]23)OCO4)cc(OC)c1OC
mutagenic call (Species/Cell Type: Chinese hamster ovary (CHO) cells, Assay Type: Forward gene mutation at the HPRT locus, Assay Code: CHOT, Evaluation Type: Evaluation B (Post-1980)): no conclusion

O=C1OC2(c3ccccc31)c1ccc(O)c(Br)c1Oc1c2ccc(O)c1Br
mutagenic call [6]: no conclusion

C[N+](C)(C)CCO
mutagenic call (Species/Cell Type: Escherichia coli polA (W3119 vs P3478), Assay Type: Rec-assay, DNA effects (bacterial DNA repair), Assay Code: RE1T, Evaluation Type: Evaluation A (Pre-1980)): no conclusion | mutagenic call [4]: active; positive

O[C@@H]1C=Cc2c(cc3ccc4cccc5ccc2c3c45)[C@@H]1O
mutagenic call [6]: no conclusion

Nc1cccc2c(N)cccc12
call (Species/Cell Type: Nonhuman, Assay Code: CCG+, Evaluation Type: Evaluation A (Pre-1980)): active; positive

ON=C1CCCCC1
mutagenic call [8]: no conclusion

CC(=O)c1ccc(S(=O)(=O)NC(=O)NC2CCCCC2)cc1
mutagenic call [9]: no conclusion

Cc1cc2nc3c(cc(N)c4ccccc43)oc-2cc1=[N+](C)C
mutagenic call [10]: inactive; negative

ONc1ncnc2nc[nH]c12
mutagenic call [3]: active; positive

Clc1ccc(COC(Cn2ccnc2)c2ccc(Cl)cc2Cl)cc1 (stereo not drawn)
mutagenic call (Species/Cell Type: Aspergillus nidulans, Assay Type: Aneuploidy, chromosome aberrations, Assay Code: ASN+, Evaluation Type: Evaluation A (Pre-1980)): active; positive

CC(=O)c1ccccc1
mutagenic call (Species/Cell Type: Escherichia coli polA (W3110 vs P3478), Assay Type: Rec-assay, DNA effects (bacterial DNA repair), Assay Code: RE2-, Evaluation Type: Evaluation A (Pre-1980)): inactive; negative | mutagenic call (Species/Cell Type: Escherichia coli polA (W3119 vs P3478), Assay Type: Rec-assay, DNA effects (bacterial DNA repair), Assay Code: RE1-, Evaluation Type: Evaluation A (Pre-1980)): inactive; negative

COc1cc2c(c3oc4cccc(OC(C)=O)c4c(=O)c13)C1C=COC1O2 (stereo not drawn)
mutagenic call [6]: no conclusion

Cc1ccc(O)cc1
mutagenic call [5]: no conclusion | mutagenic call [7]: no conclusion | mutagenic call (Species/Cell Type: Human, Assay Type: Sister-chromatid exchange (SCE) in vitro, Assay Code: SC1-, Evaluation Type: Evaluation B (Post-1980)): inactive; negative | mutagenic call [9]: no conclusion

COc1cc(C=O)ccc1O
mutagenic call [11]: active; positive | mutagenic call [12]: active; positive

CCBr
mutagenic call [8]: no conclusion

CN(C)P(=O)(N1CC1)N1CC1
mutagenic call [2]: active; positive | mutagenic call [11]: active; positive | mutagenic call [12]: active; positive | mutagenic call (Species/Cell Type: Nonhuman, Assay Type: Chromosome aberrations in vitro, Assay Code: CY&+, Evaluation Type: Evaluation A (Pre-1980)): active; positive | mutagenic call (Species/Cell Type: Schizosaccharomyces pombe, Assay Type: Reverse gene mutation, Assay Code: YEZ+, Evaluation Type: Evaluation A (Pre-1980)): active; positive

COc1ccc(/C=N/NC(=O)c2ccncc2)c(C(=O)O)c1OC
mutagenic call (Species/Cell Type: Salmonella typhimurium, Assay Type: Forward and reverse gene mutation, host-mediated assay, Assay Code: HMA-, Evaluation Type: Evaluation A (Pre-1980)): inactive; negative

[Cl-].[Cl-].[Cl-].[Ru+3]
mutagenic call [10]: inactive; negative

CNc1ccc(O)cc1
mutagenic call [5]: no conclusion | mutagenic call (Species/Cell Type: Neurospora crassa, Assay Type: Aneuploidy, chromosome aberrations, Assay Code: NEN-, Evaluation Type: Evaluation A (Pre-1980)): inactive; negative

CC(=O)[O-].CC(=O)[O-].CC(=O)[O-].[Sb+3]
mutagenic call (Species/Cell Type: Syrian hamster embryo (SA7/SHE) cells, Assay Type: Cell transformation, viral enhanced, Assay Code: CT7+, Evaluation Type: Evaluation A (Pre-1980)): active; positive

Nc1cc(N)c(N=Nc2ccc(S(=O)(=O)O)cc2)cc1N=Nc1ccc(S(=O)(=O)O)cc1 (tested in a mixture with another compound)
mutagenic call (Species/Cell Type: Salmonella typhimurium (one or more of the five standard strains: TA98, TA100, TA1535, TA1537, and TA1538), Assay Type: Histidine reverse gene mutation, Ames assay, Assay Code: SAL+, Evaluation Type: Evaluation A (Pre-1980)): active; positive

ClC1=C(Cl)[C@]2(Cl)[C@@H]3[C@@H](Cl)[C@H]4O[C@H]4[C@@H]3[C@@]1(Cl)C2(Cl)Cl
mutagenic call [8]: no conclusion | mutagenic call (Species/Cell Type: Rodents, Sex: Male, Assay Type: Dominant lethal test, Assay Code: DLT-, Evaluation Type: Evaluation A (Pre-1980)): inactive; negative | mutagenic call [6]: no conclusion
